Results taken from paper PMC11470957, “Principles of paralog-specific targeted protein degradation engaging the C-degron E3 KLHDC2” (Nature Communications, 2024).
Several values for one entry are separate records, joined by “and”; a condition that tells them apart may be missing. Equal values may be shown once.

Experiments:
[1] = molecular target: R56A KLHDC2^SBD / G386E BRD4^BD2 (Homo sapiens, UniProt O60885+Q9Y2U9, G386E/R56A); test: ITC, ternary complex R56A KLHDC2^SBD with PROTAC-G386E BRD4^BD2
[2] = molecular target: KLHDC2^SBD / BRD4^BD2 (Homo sapiens, UniProt O60885+Q9Y2U9); test: ITC, ternary complex KLHDC2^SBD with PROTAC-BRD4^BD2
[3] = tested on: KLHDC2, KLHDC3, KLHDC10, KLHDC1 E3 ligases; conditions: ligand alone; Fig S5b, c
[4] = molecular target: T1, KLHDC2 (Homo sapiens, UniProt Q9Y2U9); test: Western blot of KLHDC2 levels after cellular dosing
T1 sequence (Q9Y2U9 1-406): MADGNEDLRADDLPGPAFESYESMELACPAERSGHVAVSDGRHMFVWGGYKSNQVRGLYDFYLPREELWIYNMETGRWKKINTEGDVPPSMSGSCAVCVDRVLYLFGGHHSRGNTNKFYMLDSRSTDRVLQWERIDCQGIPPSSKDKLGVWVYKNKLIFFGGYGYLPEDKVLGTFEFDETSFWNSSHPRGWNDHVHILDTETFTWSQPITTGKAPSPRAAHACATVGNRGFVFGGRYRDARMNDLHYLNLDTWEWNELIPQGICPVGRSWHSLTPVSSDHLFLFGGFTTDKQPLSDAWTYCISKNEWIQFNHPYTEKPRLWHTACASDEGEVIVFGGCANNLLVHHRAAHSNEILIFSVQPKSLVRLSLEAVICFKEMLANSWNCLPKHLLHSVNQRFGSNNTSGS

[5] = tested on: BRD proteins in U2OS KO/rescue lysate; test: Degradation in non-denaturing lysates of U2OS KO/rescue cells; conditions: non-denaturing U2OS KO/rescue lysate 4mg/ml, 10 µM, 30° C
[6] = molecular target: BRD4 (Homo sapiens, UniProt O60885); test: Western blot of BRD4 levels after cellular dosing
[7] = molecular target: R112A KLHDC2^SBD / BRD3^BD2 (Homo sapiens, UniProt Q15059+Q9Y2U9, R112A); test: ITC, ternary complex R112A KLHDC2^SBD with PROTAC-BRD3^BD2
[8] = cell: SJ46421-G386E BRD4^BD2, syringe: R56A KLHDC2^SBD
[9] = cell: PROTAC-BRD4^BD2, syringe: KLHDC2^SBD
[10] = Fig S6b, MDA-MB468 Cells, 10 uM
[11] = ITC source data Fig4f, N=1, syringe R112A KLHDC2, cell SJ46421-BRD3BD2
[12] = ITC, syringe R112A KLHDC2, cell compound-BRD3BD2, N=1
[13] = cell: SJ46421-BRD3^BD2, syringe: R112A KLHDC2^SBD, n=1

Chain of R112A KLHDC2^SBD / BRD3^BD2 (Q9Y2U9 15-361 R112A): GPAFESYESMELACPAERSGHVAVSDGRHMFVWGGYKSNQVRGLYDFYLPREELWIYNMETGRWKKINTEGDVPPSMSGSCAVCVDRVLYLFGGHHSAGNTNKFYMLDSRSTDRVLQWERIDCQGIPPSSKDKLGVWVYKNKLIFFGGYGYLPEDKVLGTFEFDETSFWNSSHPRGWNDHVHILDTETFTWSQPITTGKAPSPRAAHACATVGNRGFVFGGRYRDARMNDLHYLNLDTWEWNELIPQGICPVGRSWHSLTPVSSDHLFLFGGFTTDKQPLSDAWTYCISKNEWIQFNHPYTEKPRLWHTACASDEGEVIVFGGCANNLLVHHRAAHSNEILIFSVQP
Chain of R112A KLHDC2^SBD / BRD3^BD2 (Q15059 306-416): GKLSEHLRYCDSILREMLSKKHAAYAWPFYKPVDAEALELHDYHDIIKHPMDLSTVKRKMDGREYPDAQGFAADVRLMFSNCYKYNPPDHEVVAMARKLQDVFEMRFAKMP
Chain of R56A KLHDC2^SBD / G386E BRD4^BD2 (Q9Y2U9 15-361 R56A, other chains not shown): as the sequence (Q9Y2U9 15-361 R112A) above, with R42A, A98R counted along it

Cc1sc2c(c1C)C(c1ccc(Cl)cc1)=N[C@@H](CC(=O)N1CCN(CCOc3cccc4ccc(-c5nc(CC(=O)NCC(=O)O)cs5)cc34)CC1)c1nnc(C)n1-2 [SJ46421]
cooperativity α ([1]; G386E BRD4^BD2, R56A KLHDC2^SBD): 1.4 | Kd ([1]; Kd, Rep1/Rep2, ITC source data Fig4f, syringe R56A KLHDC2, cell SJ46421-G386EBRD4BD2): 333 nM and 325 nM | ITC -TΔS (ternary) [1, 8]: -4.42 +/- 0.19 kcal/mol-1 | ITC N (ternary) [1, 8]: 1.1 | ITC ΔG (ternary) [1, 8]: -9.05 +/- 0.01 kcal/mol-1 | ITC ΔH (ternary) [1, 8]: -4.69 +/- 0.15 kcal/mol-1 | cooperativity α ([2]; BRD4^BD2, KLHDC2^SBD): 2.8 | ITC -TΔS (ternary) [2, 9]: -1.51 +/- 0.11 kcal/mol-1 | ITC N (ternary) [2, 9]: 0.8 | ITC ΔG (ternary) [2, 9]: -9.72 +/- 0.04 kcal/mol-1 | ITC ΔH (ternary) [2, 9]: -8.22 +/- 0.09 kcal/mol-1 | inhibition of substrate ubiquitylation by Kelch family E3 ligases other than KLHDC2 [3]: largely inactive | KLHDC2 level, Western blot quantification ([4]; Fig 6b, KO/Rescue, 5 uM, DMSO printed 0): 0 | KLHDC2 level, Western blot quantification (DMSO = 100) ([4]; Fig 6b, U2OS, 5 uM): 103.737 and 122.001 | KLHDC2 level, Western blot quantification (DMSO = 100) ([4]; Fig S6a, 293T cells, 2.5 uM): 109.414 and 102 | KLHDC2 level, Western blot quantification (DMSO = 100) ([4]; Fig S6a, 293T cells, 5 uM): 112.068 and 103 | KLHDC2 level, Western blot quantification (DMSO = 100) [4, 10]: 128.202 and 120 | degrader dependent decrease in BRD protein levels in lysate [5]: did not observe a degrader dependent decrease | BRD4 level, Western blot quantification (DMSO = 100) ([6]; Fig 6b, KO/Rescue, 5 uM): 89.649 and 113.548 | BRD4 level, Western blot quantification (DMSO = 100) ([6]; Fig 6b, U2OS, 5 uM): 119.505 and 104.107 | BRD4 level, Western blot quantification (DMSO = 100) ([6]; Fig S6a, 293T cells, 2.5 uM): 98.5503 and 107.435 | BRD4 level, Western blot quantification (DMSO = 100) ([6]; Fig S6a, 293T cells, 5 uM): 86.1267 and 99.7257 | BRD4 level, Western blot quantification (DMSO = 100) [6, 10]: 94.0762 and 99.1924 | Kd [7]: 39.7 nM | (-)TDS, Rep1 [7, 11]: -7.43 | DG, Rep1 [7, 11]: -10.3 | DH, Rep1 [7, 11]: -2.9 | (-)TDS [7, 12]: -7.43 | DG [7, 12]: -10.3 | DH [7, 12]: -2.9 | cooperativity α ([7]; R112A KLHDC2^SBD, estimated from the binding affinity of SJ46421 to WT KLHDC2): 7.6 | ITC -TΔS (ternary) [7, 13]: -7.43 kcal/mol-1 | ITC N (ternary) [7, 13]: 0.8 | ITC ΔG (ternary) [7, 13]: -10.3 kcal/mol-1 | ITC ΔH (ternary) [7, 13]: -2.9 kcal/mol-1
